Measured values reported in the supplement of paper PMC13386468.

What was measured:
Assay in all cases: IC50 for competition of protein binding to Kinobeads
Conditions in all cases: assay detail: Kinobeads competition in P. falciparum blood-stage lysate
[1] = molecular target: UniProt Q8IKH8
[2] = molecular target: UniProt Q8ILW8
[3] = molecular target: UniProt Q8I3N3
[4] = molecular target: UniProt Q8I0P6
[5] = molecular target: UniProt Q8ILQ8
[6] = molecular target: UniProt Q8IKW5
[7] = molecular target: UniProt Q8I2W2
[8] = molecular target: UniProt Q8I3T1
[9] = molecular target: UniProt C6KTC7
[10] = molecular target: UniProt P27362
[11] = molecular target: UniProt Q8IDF6
[12] = molecular target: UniProt O96198
[13] = molecular target: UniProt Q8IAM2
[14] = molecular target: UniProt Q7K6A4
[15] = molecular target: UniProt Q8IIJ6
[16] = molecular target: UniProt Q8ID85
[17] = molecular target: UniProt Q8IIA2
[18] = molecular target: UniProt Q8IL86
[19] = molecular target: UniProt O77312
[20] = molecular target: UniProt Q7KQK0
[21] = molecular target: UniProt Q8I2A1
[22] = molecular target: UniProt Q7K6B1
[23] = molecular target: UniProt Q8I463
[24] = molecular target: UniProt Q8IIG6
[25] = molecular target: UniProt Q8IAX5
[26] = molecular target: UniProt Q8IL08
[27] = molecular target: UniProt Q8IEL1
[28] = molecular target: UniProt Q8IBN7
[29] = molecular target: UniProt Q9TY94
[30] = molecular target: UniProt Q8IDV0
[31] = molecular target: UniProt Q8II22
[32] = molecular target: UniProt O77390
[33] = molecular target: UniProt Q9TY95
[34] = molecular target: UniProt Q8IIG7
[35] = molecular target: UniProt C0H4M6
[36] = molecular target: UniProt Q8ILW6
[37] = molecular target: UniProt Q8IEF5
[38] = molecular target: UniProt Q8IJW3
[39] = molecular target: UniProt C0H570
[40] = molecular target: UniProt Q8I4Y5
[41] = molecular target: UniProt C0H517
[42] = molecular target: UniProt Q8I4X0
[43] = molecular target: UniProt Q8IIA4
[44] = molecular target: UniProt Q8I2J4
[45] = molecular target: UniProt Q8IIB7
[46] = molecular target: UniProt Q8IAR6
[47] = molecular target: UniProt Q8IHP1
[48] = molecular target: UniProt Q8IJI0
[49] = molecular target: UniProt Q8IKH3
[50] = molecular target: UniProt Q8IDK7
[51] = molecular target: UniProt Q8IM15
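Further: native unpurified kinases from lysate captured on beads bearing immobilized kinase inhibitors, with bead-bound kinases quantified by mass spectrometry across compound doses.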

UniProt Q8IIG7, sequence (Q8IIG7 whole entry): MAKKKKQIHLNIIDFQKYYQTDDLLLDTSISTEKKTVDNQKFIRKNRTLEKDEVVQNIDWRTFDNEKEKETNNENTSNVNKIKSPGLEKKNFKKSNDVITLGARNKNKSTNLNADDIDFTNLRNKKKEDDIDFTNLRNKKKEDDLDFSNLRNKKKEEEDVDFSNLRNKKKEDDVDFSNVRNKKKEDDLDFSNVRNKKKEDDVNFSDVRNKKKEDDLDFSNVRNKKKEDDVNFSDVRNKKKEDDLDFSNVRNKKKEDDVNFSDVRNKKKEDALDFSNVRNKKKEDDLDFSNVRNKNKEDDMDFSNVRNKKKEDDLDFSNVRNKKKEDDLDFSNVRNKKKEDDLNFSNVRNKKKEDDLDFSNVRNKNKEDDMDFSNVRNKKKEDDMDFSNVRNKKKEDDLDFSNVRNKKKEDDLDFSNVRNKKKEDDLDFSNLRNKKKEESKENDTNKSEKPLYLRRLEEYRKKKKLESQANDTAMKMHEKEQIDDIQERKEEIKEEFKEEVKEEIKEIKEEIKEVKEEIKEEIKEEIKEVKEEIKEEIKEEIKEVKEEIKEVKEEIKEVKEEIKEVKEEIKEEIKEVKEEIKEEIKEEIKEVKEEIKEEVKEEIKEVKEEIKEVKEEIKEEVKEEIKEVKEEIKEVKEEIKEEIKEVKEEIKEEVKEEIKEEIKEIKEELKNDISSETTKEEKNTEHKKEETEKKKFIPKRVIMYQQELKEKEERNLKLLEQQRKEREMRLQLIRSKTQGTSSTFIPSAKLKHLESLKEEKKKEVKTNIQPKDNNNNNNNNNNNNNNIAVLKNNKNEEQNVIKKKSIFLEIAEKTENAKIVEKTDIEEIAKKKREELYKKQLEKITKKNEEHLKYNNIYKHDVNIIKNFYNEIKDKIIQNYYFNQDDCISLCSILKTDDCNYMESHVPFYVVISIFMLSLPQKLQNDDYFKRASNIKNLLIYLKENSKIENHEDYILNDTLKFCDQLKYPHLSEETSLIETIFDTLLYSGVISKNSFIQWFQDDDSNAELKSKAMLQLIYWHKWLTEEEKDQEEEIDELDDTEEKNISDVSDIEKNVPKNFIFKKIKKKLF
UniProt Q9TY95, sequence (Q9TY95 whole entry): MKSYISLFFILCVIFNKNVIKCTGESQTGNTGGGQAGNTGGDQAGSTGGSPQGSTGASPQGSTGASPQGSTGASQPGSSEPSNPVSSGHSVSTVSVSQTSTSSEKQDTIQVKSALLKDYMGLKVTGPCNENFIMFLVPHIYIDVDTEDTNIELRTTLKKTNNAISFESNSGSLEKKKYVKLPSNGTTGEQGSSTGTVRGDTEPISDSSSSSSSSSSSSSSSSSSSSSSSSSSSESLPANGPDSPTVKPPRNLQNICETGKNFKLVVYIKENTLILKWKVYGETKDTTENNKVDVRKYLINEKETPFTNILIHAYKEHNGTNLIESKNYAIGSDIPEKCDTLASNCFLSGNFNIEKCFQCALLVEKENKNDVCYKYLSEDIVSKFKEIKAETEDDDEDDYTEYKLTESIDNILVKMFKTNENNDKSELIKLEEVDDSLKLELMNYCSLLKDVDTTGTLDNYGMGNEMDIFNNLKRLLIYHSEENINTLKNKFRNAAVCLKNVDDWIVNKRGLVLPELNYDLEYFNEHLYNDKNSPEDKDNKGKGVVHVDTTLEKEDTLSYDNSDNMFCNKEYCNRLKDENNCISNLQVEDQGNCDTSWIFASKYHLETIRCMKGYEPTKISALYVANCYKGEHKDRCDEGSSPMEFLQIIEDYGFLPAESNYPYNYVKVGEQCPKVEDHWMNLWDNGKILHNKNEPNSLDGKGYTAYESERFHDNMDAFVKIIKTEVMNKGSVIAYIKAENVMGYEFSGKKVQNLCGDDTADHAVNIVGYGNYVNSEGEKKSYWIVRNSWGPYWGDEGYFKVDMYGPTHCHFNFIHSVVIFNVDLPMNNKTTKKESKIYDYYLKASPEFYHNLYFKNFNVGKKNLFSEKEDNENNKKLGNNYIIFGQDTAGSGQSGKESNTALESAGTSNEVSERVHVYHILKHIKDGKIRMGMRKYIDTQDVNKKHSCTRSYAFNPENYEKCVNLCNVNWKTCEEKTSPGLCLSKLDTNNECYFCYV
UniProt Q8ILW6, sequence (Q8ILW6 whole entry): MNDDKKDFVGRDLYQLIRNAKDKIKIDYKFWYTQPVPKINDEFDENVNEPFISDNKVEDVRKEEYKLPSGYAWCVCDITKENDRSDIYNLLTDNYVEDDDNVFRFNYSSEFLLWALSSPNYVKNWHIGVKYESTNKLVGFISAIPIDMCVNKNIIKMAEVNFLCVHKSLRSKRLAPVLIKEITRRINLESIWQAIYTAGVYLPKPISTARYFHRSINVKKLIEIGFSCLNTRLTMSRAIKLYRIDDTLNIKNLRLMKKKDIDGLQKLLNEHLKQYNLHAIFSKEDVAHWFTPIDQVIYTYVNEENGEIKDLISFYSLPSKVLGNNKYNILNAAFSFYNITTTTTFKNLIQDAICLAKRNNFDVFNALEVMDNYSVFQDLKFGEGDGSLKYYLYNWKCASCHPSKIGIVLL
UniProt P27362, sequence (P27362 whole entry): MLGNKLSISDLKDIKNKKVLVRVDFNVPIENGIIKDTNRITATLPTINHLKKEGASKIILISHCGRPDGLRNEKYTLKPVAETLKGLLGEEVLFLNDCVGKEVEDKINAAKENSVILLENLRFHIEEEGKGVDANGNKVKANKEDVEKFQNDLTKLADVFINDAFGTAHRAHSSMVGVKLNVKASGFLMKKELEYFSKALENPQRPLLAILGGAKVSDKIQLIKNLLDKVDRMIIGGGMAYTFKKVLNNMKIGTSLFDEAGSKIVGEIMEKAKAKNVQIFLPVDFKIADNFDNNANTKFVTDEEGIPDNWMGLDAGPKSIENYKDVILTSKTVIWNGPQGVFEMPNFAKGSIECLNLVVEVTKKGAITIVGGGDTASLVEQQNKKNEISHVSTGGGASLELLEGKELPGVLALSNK
UniProt Q8I2J4, sequence (Q8I2J4 whole entry): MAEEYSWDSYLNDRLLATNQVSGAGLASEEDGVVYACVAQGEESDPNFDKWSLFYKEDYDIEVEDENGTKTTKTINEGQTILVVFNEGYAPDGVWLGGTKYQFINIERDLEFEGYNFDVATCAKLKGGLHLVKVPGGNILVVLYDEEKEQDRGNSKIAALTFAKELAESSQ
UniProt Q8IM15, sequence (Q8IM15 whole entry): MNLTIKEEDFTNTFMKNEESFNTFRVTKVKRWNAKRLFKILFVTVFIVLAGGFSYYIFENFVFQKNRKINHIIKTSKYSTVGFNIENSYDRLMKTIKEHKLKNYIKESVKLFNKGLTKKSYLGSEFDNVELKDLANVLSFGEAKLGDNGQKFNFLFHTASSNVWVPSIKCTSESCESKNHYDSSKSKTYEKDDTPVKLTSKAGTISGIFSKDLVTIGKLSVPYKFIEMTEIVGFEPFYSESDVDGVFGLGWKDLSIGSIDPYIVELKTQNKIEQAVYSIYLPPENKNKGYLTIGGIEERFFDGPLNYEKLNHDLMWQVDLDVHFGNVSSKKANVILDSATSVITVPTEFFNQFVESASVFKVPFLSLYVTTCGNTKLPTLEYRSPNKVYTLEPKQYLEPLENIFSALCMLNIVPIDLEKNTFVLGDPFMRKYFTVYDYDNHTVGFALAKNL
UniProt Q8I4X0, sequence (Q8I4X0 whole entry): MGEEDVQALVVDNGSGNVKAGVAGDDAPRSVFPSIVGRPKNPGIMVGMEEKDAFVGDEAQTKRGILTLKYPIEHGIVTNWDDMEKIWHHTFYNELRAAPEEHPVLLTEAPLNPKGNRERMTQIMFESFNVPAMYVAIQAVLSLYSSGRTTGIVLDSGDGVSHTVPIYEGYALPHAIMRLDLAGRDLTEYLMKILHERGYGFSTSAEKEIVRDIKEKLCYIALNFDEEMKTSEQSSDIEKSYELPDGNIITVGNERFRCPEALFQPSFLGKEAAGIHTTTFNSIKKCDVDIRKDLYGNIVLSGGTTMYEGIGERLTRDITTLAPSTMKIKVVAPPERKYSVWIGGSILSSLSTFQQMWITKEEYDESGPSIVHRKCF
UniProt Q8IDF6, sequence (Q8IDF6 whole entry): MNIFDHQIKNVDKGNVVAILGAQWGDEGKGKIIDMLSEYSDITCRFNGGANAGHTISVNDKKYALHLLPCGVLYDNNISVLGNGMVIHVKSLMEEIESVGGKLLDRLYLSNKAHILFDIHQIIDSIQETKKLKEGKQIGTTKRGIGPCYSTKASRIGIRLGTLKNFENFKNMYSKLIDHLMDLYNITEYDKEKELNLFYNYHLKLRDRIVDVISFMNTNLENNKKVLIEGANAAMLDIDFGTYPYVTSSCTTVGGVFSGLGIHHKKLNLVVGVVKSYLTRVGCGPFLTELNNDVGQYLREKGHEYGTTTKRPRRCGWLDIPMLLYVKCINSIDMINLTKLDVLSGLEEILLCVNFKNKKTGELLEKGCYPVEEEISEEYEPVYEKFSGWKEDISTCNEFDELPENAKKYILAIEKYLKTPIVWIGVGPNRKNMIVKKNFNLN
UniProt Q8IIJ6, sequence (Q8IIJ6 whole entry): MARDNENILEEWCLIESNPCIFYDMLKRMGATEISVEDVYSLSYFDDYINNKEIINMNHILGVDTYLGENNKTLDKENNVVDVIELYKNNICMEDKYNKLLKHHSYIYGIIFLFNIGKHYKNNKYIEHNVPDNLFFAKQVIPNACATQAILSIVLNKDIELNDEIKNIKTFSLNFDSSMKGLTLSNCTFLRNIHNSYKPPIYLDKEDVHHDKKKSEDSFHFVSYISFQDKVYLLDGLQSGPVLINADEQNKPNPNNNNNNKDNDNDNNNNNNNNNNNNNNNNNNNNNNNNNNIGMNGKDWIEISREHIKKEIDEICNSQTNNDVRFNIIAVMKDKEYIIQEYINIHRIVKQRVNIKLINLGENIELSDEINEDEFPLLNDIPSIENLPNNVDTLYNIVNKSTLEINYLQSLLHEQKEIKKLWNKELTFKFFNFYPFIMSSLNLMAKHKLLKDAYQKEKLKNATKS

Question: How did the IC50 [1] turn out when `O=c1[nH]c2ccc(Cl)cc2c(NC2CN3CCC2CC3)c1-c1nc2ccccc2[nH]1` (stereo unspecified) [CHIR-124] was run?
Answer: > 20 µM

Question: And the IC50 [2]?
Answer: > 20 µM

Question: What about the IC50 [3] of the same compound?
Answer: > 20 µM

Question: And the IC50 [4]?
Answer: > 20 µM

Question: What about the IC50 [5] of the same compound?
Answer: > 20 µM

Question: And the IC50 [6]?
Answer: > 20 µM

Question: What about the IC50 [7] of the same compound?
Answer: > 20 µM

Question: And the IC50 [8]?
Answer: > 20 µM

Question: What about the IC50 [9] of the same compound?
Answer: > 20 µM

Question: What about the IC50 [10] of the same compound?
Answer: > 20 µM

Question: What about the IC50 [11] of the same compound?
Answer: > 20 µM

Question: What about the IC50 [12] of the same compound?
Answer: > 20 µM

Question: What about the IC50 [13] of the same compound?
Answer: > 20 µM

Question: And the IC50 [14]?
Answer: > 20 µM

Question: What about the IC50 [15] of the same compound?
Answer: > 20 µM

Question: What about the IC50 [16] of the same compound?
Answer: > 20 µM

Question: What about the IC50 [17] of the same compound?
Answer: > 20 µM

Question: What about the IC50 [18] of the same compound?
Answer: > 20 µM

Question: What about the IC50 [19] of the same compound?
Answer: > 20 µM

Question: What about the IC50 [20] of the same compound?
Answer: 0.85 µM

Question: And the IC50 [21]?
Answer: > 20 µM

Question: What about the IC50 [22] of the same compound?
Answer: > 20 µM

Question: What about the IC50 [23] of the same compound?
Answer: > 20 µM

Question: What about the IC50 [24] of the same compound?
Answer: > 20 µM

Question: What about the IC50 [25] of the same compound?
Answer: > 20 µM

Question: What about the IC50 [26] of the same compound?
Answer: > 20 µM

Question: And the IC50 [27]?
Answer: 2.9 µM

Question: What about the IC50 [28] of the same compound?
Answer: > 20 µM

Question: And the IC50 [29]?
Answer: > 20 µM

Question: And the IC50 [30]?
Answer: > 20 µM

Question: What about the IC50 [31] of the same compound?
Answer: > 20 µM

Question: And the IC50 [32]?
Answer: > 20 µM

Question: And the IC50 [33]?
Answer: > 20 µM

Question: What about the IC50 [34] of the same compound?
Answer: > 20 µM

Question: And the IC50 [35]?
Answer: > 20 µM

Question: And the IC50 [36]?
Answer: > 20 µM

Question: What about the IC50 [37] of the same compound?
Answer: > 20 µM

Question: What about the IC50 [38] of the same compound?
Answer: > 20 µM

Question: What about the IC50 [39] of the same compound?
Answer: > 20 µM

Question: What about the IC50 [40] of the same compound?
Answer: > 20 µM

Question: What about the IC50 [41] of the same compound?
Answer: > 20 µM

Question: What about the IC50 [42] of the same compound?
Answer: > 20 µM

Question: What about the IC50 [43] of the same compound?
Answer: > 20 µM

Question: And the IC50 [44]?
Answer: > 20 µM

Question: What about the IC50 [45] of the same compound?
Answer: > 20 µM

Question: What about the IC50 [46] of the same compound?
Answer: > 20 µM

Question: What about the IC50 [47] of the same compound?
Answer: > 20 µM

Question: And the IC50 [48]?
Answer: > 20 µM

Question: And the IC50 [49]?
Answer: > 20 µM

Question: What about the IC50 [50] of the same compound?
Answer: > 20 µM

Question: What about the IC50 [51] of the same compound?
Answer: > 20 µM
